Results as given in US8734837B2, “Enhancement of development of oviparous species by in ovo feeding of enteric modulators” (North Carolina State University, priority 2000, dated 2014).

Columns and labels:
Assay type in all cases: in vivo
[1] = Liver glycogen of turkey poults by HMB dosage injected in ovo (Example 10, FIG. 7); settings: turkey poults at hatch; all HMB dosage levels (0.1-100.0 milligrams)
Method: (§1) Three hundred commercial turkey eggs were stored for three weeks in a cooler at 55° F. and then placed in an egg incubator. After 24 days of incubation, eggs identified as fertile by candling the eggs were randomly assigned to 5 groups of 50 eggs. Each group of 50 eggs was then injected into the air cell at a depth of 0.25 inches with a 0.10 ml saline (0.89% NaCl) solution containing 0, 0.1, 1.0, 10.0, and 100.0 milligrams of Ca-HMB.
(§2) After injection, the eggs were placed in hatching baskets such that each treatment was equally represented in each location of the incubator. Hatched poults were recovered from the incubator at 28 days of incubation and the number of hatched poults per treatment group recorded. The hatched poults were then sacrificed and blood glucose was determined in accordance with known techniques (see Donaldson and Christensen, Comp. Biochem. Physiol. 98A, 347-350 (1991)). Livers were removed and glycogen content of each liver was determined by known techniques (see Dreiling et al., Meat Sci. 20, 167-177 (1987)).

[2] = Hatchability rate of turkey poults by HMB dosage injected in ovo (Example 10, FIG. 6)
Method: as §1, §2

[3] = Plasma glucose of turkey poults by HMB dosage injected in ovo (Example 10, FIG. 8); settings: turkey poults at hatch
Method: as §1, §2

Compound: CC(C)(O)CC(=O)O [HMB, beta-hydroxy-beta-methylbutyrate]
- Liver glycogen content, increase compared with the control treatment [1]: about 40%
- Hatchability rate ([2]; turkey eggs stored 3 weeks, 0.1 and 1.0 milligrams HMB in 0.1 ml saline into air cell at 24 days of incubation, control 72.3%): 81.6%
- Hatchability rate (in words) ([2]; turkey eggs, HMB injected above 1.0 milligrams): hatchability rate decreased
- Plasma glucose concentration (in words) ([3]; 0.1 milligram HMB dosage): significantly increased plasma glucose concentration
- Plasma glucose concentration (in words) ([3]; other HMB dosage levels (1.0, 10.0, 100.0 milligrams)): no significant effect on plasma glucose
